Assay results reported in ChEMBL document CHEMBL4400519, “Indazolylketones as new multitarget cannabinoid drugs” (Eur J Med Chem, 2019).
Active and inactive are the calls of the source. No cut-off for these calls is given here.

Experiments:
[1] = target: T1, Cannabinoid receptor (Mus musculus) (UniProt P47746+P47936); assay: Agonist activity at cannabinoid receptor in ICR mouse vas deferens assessed as inhibition of electrically induced contractions at 10^-7 M after 10 mins relative to control; format: protein assay
T1 sequence (P47746 whole entry, looked up): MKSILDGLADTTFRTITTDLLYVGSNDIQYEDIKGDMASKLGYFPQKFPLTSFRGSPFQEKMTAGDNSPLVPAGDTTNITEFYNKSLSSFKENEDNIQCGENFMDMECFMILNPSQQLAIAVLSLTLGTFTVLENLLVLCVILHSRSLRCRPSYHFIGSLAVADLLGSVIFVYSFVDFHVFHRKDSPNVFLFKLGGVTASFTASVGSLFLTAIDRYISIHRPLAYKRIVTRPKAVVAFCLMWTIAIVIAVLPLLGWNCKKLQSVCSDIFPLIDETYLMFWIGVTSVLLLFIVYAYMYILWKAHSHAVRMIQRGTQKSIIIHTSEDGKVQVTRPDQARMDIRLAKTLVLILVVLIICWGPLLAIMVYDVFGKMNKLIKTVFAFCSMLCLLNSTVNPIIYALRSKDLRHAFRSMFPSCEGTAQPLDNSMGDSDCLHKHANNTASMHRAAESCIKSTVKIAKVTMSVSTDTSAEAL
T1 sequence (P47936 whole entry, looked up): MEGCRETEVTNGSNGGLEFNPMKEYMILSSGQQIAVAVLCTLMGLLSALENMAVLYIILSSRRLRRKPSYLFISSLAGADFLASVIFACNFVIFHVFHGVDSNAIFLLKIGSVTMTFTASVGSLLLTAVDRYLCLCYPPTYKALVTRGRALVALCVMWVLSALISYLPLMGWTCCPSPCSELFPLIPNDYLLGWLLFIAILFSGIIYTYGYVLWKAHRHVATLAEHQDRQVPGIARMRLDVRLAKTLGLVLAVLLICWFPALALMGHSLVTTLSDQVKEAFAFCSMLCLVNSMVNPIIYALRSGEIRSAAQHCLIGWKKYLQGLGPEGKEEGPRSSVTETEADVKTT

[2] = target: T1, Cannabinoid receptor (Mus musculus); assay: Agonist activity at cannabinoid receptor in ICR mouse vas deferens assessed as inhibition of electrically induced contractions at 3 x 10^-7 M after 10 mins relative to control; format: protein assay
[3] = target: T1, Cannabinoid receptor (Mus musculus); assay: Agonist activity at cannabinoid receptor in ICR mouse vas deferens assessed as inhibition of electrically induced contractions at 9 x 10^-7 M after 10 mins relative to control; format: protein assay
[4] = target: T1, Cannabinoid receptor (Mus musculus); assay: Agonist activity at cannabinoid receptor in ICR mouse vas deferens assessed as inhibition of electrically induced contractions at 2.7 x 10^-6 M after 10 mins relative to control; format: protein assay
[5] = target: T1, Cannabinoid receptor (Mus musculus); assay: Agonist activity at cannabinoid receptor in ICR mouse vas deferens assessed as inhibition of electrically induced contractions at 8.1 x 10^-6 M after 10 mins relative to control; format: protein assay
[6] = target: T1, Cannabinoid receptor (Mus musculus); assay: Agonist activity at cannabinoid receptor in ICR mouse vas deferens assessed as inhibition of electrically induced contractions at 1.82 x 10^-5 M after 10 mins relative to control; format: protein assay
[7] = target: T1, Cannabinoid receptor (Mus musculus); assay: Agonist activity at cannabinoid receptor in ICR mouse vas deferens assessed as inhibition of electrically induced contractions at 10^-7 M after 10 mins in presence of CB1 antagonist AM251 relative to control; format: protein assay
[8] = target: T1, Cannabinoid receptor (Mus musculus); assay: Agonist activity at cannabinoid receptor in ICR mouse vas deferens assessed as inhibition of electrically induced contractions at 3 x 10^-7 M after 10 mins in presence of CB1 antagonist AM251 relative to control; format: protein assay
[9] = target: T1, Cannabinoid receptor (Mus musculus); assay: Agonist activity at cannabinoid receptor in ICR mouse vas deferens assessed as inhibition of electrically induced contractions at 9 x 10^-7 M after 10 mins in presence of CB1 antagonist AM251 relative to control; format: protein assay
[10] = target: T1, Cannabinoid receptor (Mus musculus); assay: Agonist activity at cannabinoid receptor in ICR mouse vas deferens assessed as inhibition of electrically induced contractions at 2.7 x 10^-6 M after 10 mins in presence of CB1 antagonist AM251 relative to control; format: protein assay
[11] = target: T1, Cannabinoid receptor (Mus musculus); assay: Agonist activity at cannabinoid receptor in ICR mouse vas deferens assessed as inhibition of electrically induced contractions at 8.1 x 10^-6 M after 10 mins in presence of CB1 antagonist AM251 relative to control; format: protein assay
[12] = target: T1, Cannabinoid receptor (Mus musculus); assay: Agonist activity at cannabinoid receptor in ICR mouse vas deferens assessed as inhibition of electrically induced contractions at 1.82 x 10^-5 M after 10 mins in presence of CB1 antagonist AM251 relative to control; format: protein assay
[13] = target: T1, Cannabinoid receptor (Mus musculus); assay: Agonist activity at cannabinoid receptor in ICR mouse vas deferens assessed as inhibition of electrically induced contractions at 10^-7 M after 10 mins in presence of CB2 antagonist AM630 relative to control; format: protein assay
[14] = target: T1, Cannabinoid receptor (Mus musculus); assay: Agonist activity at cannabinoid receptor in ICR mouse vas deferens assessed as inhibition of electrically induced contractions at 3 x 10^-7 M after 10 mins in presence of CB2 antagonist AM630 relative to control; format: protein assay
[15] = target: T1, Cannabinoid receptor (Mus musculus); assay: Agonist activity at cannabinoid receptor in ICR mouse vas deferens assessed as inhibition of electrically induced contractions at 9 x 10^-7 M after 10 mins in presence of CB2 antagonist AM630 relative to control; format: protein assay
[16] = target: T1, Cannabinoid receptor (Mus musculus); assay: Agonist activity at cannabinoid receptor in ICR mouse vas deferens assessed as inhibition of electrically induced contractions at 2.7 x 10^-6 M after 10 mins in presence of CB2 antagonist AM630 relative to control; format: protein assay
[17] = target: T1, Cannabinoid receptor (Mus musculus); assay: Agonist activity at cannabinoid receptor in ICR mouse vas deferens assessed as inhibition of electrically induced contractions at 8.1 x 10^-6 M after 10 mins in presence of CB2 antagonist AM630 relative to control; format: protein assay
[18] = target: T1, Cannabinoid receptor (Mus musculus); assay: Agonist activity at cannabinoid receptor in ICR mouse vas deferens assessed as inhibition of electrically induced contractions at 1.82 x 10^-5 M after 10 mins in presence of CB2 antagonist AM630 relative to control; format: protein assay
Acetylcholinesterase = Acetylcholinesterase (Homo sapiens, UniProt P22303); assay: Inhibition of human erythrocyte AChE using acetylthiocholine as substrate by Ellman's assay
Sequence of Acetylcholinesterase (P22303 whole entry): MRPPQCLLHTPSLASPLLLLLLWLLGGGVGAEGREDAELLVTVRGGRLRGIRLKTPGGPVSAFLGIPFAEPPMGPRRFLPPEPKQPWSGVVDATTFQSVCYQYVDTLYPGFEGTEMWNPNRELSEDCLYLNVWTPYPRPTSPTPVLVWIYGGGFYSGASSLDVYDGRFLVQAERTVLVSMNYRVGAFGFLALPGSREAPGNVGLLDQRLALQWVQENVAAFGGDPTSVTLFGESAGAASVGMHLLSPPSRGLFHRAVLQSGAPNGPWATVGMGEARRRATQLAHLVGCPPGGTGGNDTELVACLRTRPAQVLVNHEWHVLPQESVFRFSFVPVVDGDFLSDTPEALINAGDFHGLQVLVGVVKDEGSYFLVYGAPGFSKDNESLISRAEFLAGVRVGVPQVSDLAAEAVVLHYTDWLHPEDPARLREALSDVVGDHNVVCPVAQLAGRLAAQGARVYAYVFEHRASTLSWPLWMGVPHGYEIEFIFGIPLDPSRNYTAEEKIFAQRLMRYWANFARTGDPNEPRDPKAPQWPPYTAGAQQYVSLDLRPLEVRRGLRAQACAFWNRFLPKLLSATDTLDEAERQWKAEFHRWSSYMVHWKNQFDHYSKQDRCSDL

Cholinesterase = Cholinesterase (Homo sapiens, UniProt P06276); assay: Inhibition of human serum BChE using butyrylthiocholine as substrate by Ellman's assay
Sequence of Cholinesterase (P06276 whole entry): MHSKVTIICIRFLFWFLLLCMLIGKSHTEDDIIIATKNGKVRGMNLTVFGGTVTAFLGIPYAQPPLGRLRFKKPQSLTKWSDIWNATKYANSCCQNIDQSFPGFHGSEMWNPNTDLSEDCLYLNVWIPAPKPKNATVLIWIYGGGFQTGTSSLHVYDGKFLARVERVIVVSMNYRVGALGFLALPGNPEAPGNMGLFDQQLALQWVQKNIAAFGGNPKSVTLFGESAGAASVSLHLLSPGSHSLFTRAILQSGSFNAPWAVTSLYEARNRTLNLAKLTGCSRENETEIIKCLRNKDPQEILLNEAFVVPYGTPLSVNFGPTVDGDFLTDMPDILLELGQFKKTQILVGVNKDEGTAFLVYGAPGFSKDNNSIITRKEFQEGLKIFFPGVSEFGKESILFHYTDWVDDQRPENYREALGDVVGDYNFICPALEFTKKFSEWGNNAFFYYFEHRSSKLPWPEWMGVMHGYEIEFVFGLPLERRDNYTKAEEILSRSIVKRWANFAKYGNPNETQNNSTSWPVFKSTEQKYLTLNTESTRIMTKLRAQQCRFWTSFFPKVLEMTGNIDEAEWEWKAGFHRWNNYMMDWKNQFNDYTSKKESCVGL

[19] = target: Beta-secretase 1 (Homo sapiens) (UniProt P56817); assay: Inhibition of human BACE1 at 10 uM incubated for 60 mins using rhodamine-EVNLDAEFK-quencher substrate by FRET assay
Sequence of Beta-secretase 1 (Homo sapiens) (P56817 whole entry): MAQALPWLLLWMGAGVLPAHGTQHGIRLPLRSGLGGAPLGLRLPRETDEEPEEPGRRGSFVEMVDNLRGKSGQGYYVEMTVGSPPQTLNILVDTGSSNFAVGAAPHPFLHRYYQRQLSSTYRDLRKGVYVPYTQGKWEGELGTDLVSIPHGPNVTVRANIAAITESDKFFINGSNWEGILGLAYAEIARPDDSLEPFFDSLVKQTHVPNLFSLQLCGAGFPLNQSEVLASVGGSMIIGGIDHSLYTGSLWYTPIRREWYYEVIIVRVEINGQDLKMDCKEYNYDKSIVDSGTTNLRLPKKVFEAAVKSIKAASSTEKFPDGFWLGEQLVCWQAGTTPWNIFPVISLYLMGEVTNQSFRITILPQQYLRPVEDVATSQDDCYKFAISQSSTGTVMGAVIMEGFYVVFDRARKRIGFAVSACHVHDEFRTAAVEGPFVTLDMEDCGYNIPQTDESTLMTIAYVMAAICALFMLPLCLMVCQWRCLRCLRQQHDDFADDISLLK

[20] = Antioxidant activity assessed as trolox equivalent of APPH-induced radical scavenging activity by ORAC-FL assay; format: functional

Compound	inhibition [1] [%]	inhibition [2] [%]	inhibition [3] [%]	inhibition [4] [%]	inhibition [5] [%]	inhibition [6] [%]	inhibition [7] [%]	inhibition [8] [%]	inhibition [9] [%]	inhibition [10] [%]	inhibition [11] [%]	inhibition [12] [%]	inhibition [13] [%]	inhibition [14] [%]	inhibition [15] [%]	inhibition [16] [%]	inhibition [17] [%]	inhibition [18] [%]	IC50 (Acetylcholinesterase) [µM]	IC50 (Cholinesterase) [µM]	other results
O=C(c1ccccc1Cl)n1nc(OCCCN2CCCCC2)c2ccccc21	-2.2	2.8	8.9	13	42.8	87.3	-1.7	-0.4	4.7	10.7	51.5	88.2	-7.9	-7	6.2	9.3	34.3	79.8	9.7	0.07	inhibition [19]: 12%; Activity [20]: 0.28 equiv
COc1ccc(CC(=O)n2nc(OCCN3CCCC3)c3ccccc32)cc1	2.4	7.9	13.7	23.4	50.3	76.9	-1.7	-0.9	2.4	12.2	44.3	78.6	0.1	3.3	6.4	14	47.9	78.6	> 10	9	inhibition [19]: 17%; Activity [20]: inactive
O=C(c1cccc(F)c1F)n1nc(OCCN2CCCC2)c2ccccc21	0.8	3.6	11	24.1	37.5	49.4	-1.6	-1.2	4.9	12.5	23.3	29.9	-3.8	-2.8	3.7	13.2	21.2	30.1	11	11	inhibition [19]: 14%; Activity [20]: inactive
Cc1c(C(=O)c2cccc3ccccc23)c2cccc3c2n1[C@H](CN1CCOCC1)CO3	17.8	32.7	54.5	61.8	71.4	81.3	-3.9	-2.7	2	11.5	31.9	52	-1.1	2	22	33.2	54.8	68.9			
COc1cc(C(=O)n2nc(OCCN3CCCC3)c3ccccc32)cc(OC)c1OC	3.2	7	14.6	26.9	49.7	78	-0.7	6	5.6	15	42.4	74	-1	0.8	4.1	10.9	40	69.5	11.6	> 10	inhibition [19]: 6%; Activity [20]: inactive
Cc1c(C(=O)NN2CCCCC2)nn(-c2ccc(Cl)cc2Cl)c1-c1ccc(I)cc1							-7.3	-2	12.1	38.4	72.7	84.6									
